SMILES strings stand for the structures.

Sequence of 5-hydroxytryptamine receptor 5A (Homo sapiens) (P47898 whole entry): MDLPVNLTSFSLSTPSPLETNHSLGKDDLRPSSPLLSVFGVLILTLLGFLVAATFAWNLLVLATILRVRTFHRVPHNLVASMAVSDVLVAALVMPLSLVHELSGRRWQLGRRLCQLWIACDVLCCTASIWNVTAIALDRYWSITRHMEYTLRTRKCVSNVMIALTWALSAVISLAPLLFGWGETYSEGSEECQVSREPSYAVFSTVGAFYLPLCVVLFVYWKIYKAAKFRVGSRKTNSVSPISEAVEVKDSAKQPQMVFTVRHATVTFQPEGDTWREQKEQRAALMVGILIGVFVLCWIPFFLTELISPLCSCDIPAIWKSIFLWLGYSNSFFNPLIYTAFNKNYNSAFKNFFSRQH
Sequence of 5-hydroxytryptamine receptor 2B (P41595 whole entry): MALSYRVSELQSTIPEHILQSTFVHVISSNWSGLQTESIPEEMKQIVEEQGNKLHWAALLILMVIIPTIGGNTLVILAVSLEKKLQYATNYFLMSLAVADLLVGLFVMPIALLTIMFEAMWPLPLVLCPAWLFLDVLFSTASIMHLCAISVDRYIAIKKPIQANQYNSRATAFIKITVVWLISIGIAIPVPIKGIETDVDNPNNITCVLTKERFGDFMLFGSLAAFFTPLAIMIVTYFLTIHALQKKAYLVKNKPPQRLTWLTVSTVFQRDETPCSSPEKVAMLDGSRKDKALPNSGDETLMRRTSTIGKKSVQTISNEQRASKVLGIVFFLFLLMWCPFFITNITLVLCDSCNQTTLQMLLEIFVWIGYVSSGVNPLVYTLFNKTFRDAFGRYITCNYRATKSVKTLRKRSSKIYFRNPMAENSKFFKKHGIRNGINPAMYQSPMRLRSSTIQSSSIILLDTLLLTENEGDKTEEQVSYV
Sequence of 5-hydroxytryptamine receptor 4 (Homo sapiens) (Q13639 whole entry): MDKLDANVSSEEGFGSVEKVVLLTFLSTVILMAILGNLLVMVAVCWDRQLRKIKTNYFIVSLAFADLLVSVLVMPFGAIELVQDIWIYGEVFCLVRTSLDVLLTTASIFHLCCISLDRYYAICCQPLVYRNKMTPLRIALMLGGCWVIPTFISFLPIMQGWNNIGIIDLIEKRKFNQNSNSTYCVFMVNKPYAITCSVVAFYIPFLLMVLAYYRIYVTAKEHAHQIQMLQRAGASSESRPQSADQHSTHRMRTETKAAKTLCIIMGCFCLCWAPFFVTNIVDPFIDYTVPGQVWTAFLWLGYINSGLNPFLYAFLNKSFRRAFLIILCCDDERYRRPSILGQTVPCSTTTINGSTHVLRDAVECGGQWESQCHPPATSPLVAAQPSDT
Sequence of 5-hydroxytryptamine receptor 1E (Homo sapiens) (P28566 whole entry): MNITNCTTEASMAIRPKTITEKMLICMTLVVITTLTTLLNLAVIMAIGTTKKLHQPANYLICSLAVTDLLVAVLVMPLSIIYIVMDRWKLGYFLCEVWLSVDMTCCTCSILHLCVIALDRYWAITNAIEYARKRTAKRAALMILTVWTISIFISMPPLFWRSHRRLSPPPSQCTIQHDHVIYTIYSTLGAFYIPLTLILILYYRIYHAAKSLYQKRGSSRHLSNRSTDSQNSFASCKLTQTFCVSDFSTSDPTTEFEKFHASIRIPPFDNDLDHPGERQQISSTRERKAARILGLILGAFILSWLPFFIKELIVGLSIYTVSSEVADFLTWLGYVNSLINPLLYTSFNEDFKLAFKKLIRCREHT

The target of one experiment is Adenosine receptor A2a (Homo sapiens, UniProt P29274). Nature of the experiment: Displacement of [3 H]2-[p-(2-carboxyethyl)phenyl-ethylamino]-5'-N-ethylcarboxamidoadenosine from recombinant human adenosine receptor A2A expressed in HEK293 cell membranes at 10 uM after 60 mins by liquid scintillation counting method relative to control.
Sequence of Adenosine receptor A2a (P29274 whole entry): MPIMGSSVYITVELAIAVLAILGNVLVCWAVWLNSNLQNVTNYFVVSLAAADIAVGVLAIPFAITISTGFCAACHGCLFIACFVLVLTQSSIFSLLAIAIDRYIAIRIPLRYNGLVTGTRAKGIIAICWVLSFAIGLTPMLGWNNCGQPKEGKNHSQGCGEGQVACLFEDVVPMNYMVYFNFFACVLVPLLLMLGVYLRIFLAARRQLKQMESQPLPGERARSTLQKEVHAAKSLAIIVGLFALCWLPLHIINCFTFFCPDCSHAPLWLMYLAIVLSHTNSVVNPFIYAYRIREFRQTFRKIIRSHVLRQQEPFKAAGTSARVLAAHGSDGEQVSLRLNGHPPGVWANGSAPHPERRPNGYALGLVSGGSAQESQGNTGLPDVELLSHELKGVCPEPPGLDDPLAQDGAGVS
Details: not given
For orientation: inhibition means the drop in the measured response relative to a control, in per cent. Consider `CNC(=O)[C@@]12C[C@@H]1[C@@H](n1cnc3c(N(C)C)nc(C#Cc4ccc(Cl)s4)nc31)[C@H](O)[C@@H]2O`, for which the inhibition was determined as 15%.

For a further experiment, the target named is T1, 5-hydroxytryptamine receptor 3A (Homo sapiens) (UniProt P46098).
T1 sequence (whole entry): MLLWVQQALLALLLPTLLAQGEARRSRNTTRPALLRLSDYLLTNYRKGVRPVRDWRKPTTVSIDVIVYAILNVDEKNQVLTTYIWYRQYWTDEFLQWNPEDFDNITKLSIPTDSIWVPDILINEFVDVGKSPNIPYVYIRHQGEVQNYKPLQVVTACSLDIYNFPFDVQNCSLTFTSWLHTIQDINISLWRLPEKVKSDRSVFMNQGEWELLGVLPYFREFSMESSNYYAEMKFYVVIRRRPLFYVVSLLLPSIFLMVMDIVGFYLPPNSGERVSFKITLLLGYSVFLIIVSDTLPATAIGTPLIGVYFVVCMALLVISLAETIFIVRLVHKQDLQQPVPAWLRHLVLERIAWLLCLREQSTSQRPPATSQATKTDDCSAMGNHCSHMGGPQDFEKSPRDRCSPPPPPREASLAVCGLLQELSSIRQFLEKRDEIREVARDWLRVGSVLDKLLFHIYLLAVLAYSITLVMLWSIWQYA
The experiment can be described thus: Displacement of [3H]GR65630 from human 5-HT3 receptor expressed in HEK-T cell membranes at 10 uM incubated for 90 mins under dark condition by microbeta scintillation counting method relative to control.
Details: not given
For orientation: Loss of bound radioactivity is the signal in a displacement assay; it reports binding, not function.
Regarding `CNC(=O)[C@@]12C[C@@H]1[C@@H](n1cnc3c(N(C)C)nc(C#Cc4ccc(Cl)s4)nc31)[C@H](O)[C@@H]2O`, the inhibition was under 50%.

Another experiment concerns the target T2, 5-hydroxytryptamine receptor 2C (Homo sapiens, UniProt P28335).
T2 sequence (P28335 whole entry): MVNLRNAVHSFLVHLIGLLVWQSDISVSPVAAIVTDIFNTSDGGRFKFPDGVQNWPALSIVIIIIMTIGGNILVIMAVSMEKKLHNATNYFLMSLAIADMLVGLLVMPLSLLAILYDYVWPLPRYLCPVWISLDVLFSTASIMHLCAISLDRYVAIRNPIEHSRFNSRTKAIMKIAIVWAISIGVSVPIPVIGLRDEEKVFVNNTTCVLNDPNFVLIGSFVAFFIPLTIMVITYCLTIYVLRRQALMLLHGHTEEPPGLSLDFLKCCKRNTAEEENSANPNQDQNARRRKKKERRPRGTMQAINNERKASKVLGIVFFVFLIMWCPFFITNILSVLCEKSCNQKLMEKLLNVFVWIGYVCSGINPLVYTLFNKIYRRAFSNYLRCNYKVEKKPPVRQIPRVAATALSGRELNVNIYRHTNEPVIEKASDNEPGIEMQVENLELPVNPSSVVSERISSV
Nature of the experiment: Displacement of [3H]mesulergine from human 5-HT2CR expressed in Flp-In HEK cell membranes incubated for 90 mins under dark condition by microbeta scintillation counting method. More on the design: species or system HEK293.
Details: not given
What is called Ki is a dissociation constant, usually derived from enzyme kinetics or from competition with a known ligand. Take `CNC(=O)[C@@]12C[C@@H]1[C@@H](n1cnc3c(N(C)C)nc(C#Cc4ccc(Cl)s4)nc31)[C@H](O)[C@@H]2O`: the affinity corresponds to a Ki of 8.5 µM.

Another experiment addresses 5-hydroxytryptamine receptor 2B (Homo sapiens, UniProt P41595). As to conditions: HEK293, at 10 µM.
With `CNC(=O)[C@@]12C[C@@H]1[C@@H](n1cnc3c(N(C)C)nc(C#Cc4ccc(Cl)s4)nc31)[C@H](O)[C@@H]2O`, the inhibition was under 10%.

Tested on in another experiment: not listed separately
Nature of the experiment: Displacement of [3H]DTG from sigma2 receptor in rat PC12 cells after 90 mins by microbeta scintillation counting method. The format is cell-based. The following applies: pc-12.
As to `CNC(=O)[C@@]12C[C@@H]1[C@@H](n1cnc3c(N(C)C)nc(C#Cc4ccc(Cl)s4)nc31)[C@H](O)[C@@H]2O`, the Ki was 7.3 µM.

Another experiment concerns the target T3, 5-hydroxytryptamine receptor 2C (Homo sapiens) (UniProt P28335).
T3 sequence (whole entry): T2 sequence (P28335 whole entry)
The experiment can be described thus: Displacement of [3H]mesulergine from human 5-HT2CR expressed in Flp-In HEK cell membranes at 10 uM incubated for 90 mins under dark condition by microbeta scintillation counting method relative to control. As to conditions: HEK293.
Take `CNC(=O)[C@@]12C[C@@H]1[C@@H](n1cnc3c(N(C)C)nc(C#Cc4ccc(Cl)s4)nc31)[C@H](O)[C@@H]2O`: the inhibition is over 50%.

For another experiment, the target named is T4, 5-hydroxytryptamine receptor 2A (Homo sapiens, UniProt P28223). Nature of the experiment: Displacement of [3H]ketanserin from human 5-HT2A receptor expressed in HEK-T cell membranes at 10 uM incubated for 90 mins under dark condition by microbeta scintillation counting method relative to control.
T4 sequence (P28223 whole entry): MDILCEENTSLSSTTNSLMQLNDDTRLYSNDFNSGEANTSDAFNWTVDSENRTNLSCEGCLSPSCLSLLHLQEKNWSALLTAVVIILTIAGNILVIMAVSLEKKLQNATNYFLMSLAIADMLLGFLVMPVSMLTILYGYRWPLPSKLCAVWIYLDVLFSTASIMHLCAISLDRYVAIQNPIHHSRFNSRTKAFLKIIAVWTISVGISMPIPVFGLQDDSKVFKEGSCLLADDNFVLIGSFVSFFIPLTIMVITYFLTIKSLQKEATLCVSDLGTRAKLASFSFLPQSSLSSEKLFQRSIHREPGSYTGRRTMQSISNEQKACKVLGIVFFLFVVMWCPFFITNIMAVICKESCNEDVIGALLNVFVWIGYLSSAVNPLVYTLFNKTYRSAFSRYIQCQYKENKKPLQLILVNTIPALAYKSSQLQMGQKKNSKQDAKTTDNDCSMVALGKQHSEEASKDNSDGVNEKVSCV
Details: not given
Turning to `CNC(=O)[C@@]12C[C@@H]1[C@@H](n1cnc3c(N(C)C)nc(C#Cc4ccc(Cl)s4)nc31)[C@H](O)[C@@H]2O`, the inhibition is 27%.

Another experiment deals with 5-hydroxytryptamine receptor 1D (Homo sapiens) (UniProt P28221). Nature of the experiment: Displacement of [3H]5-CT from human 5-HT1D receptor expressed in HEK-T cell membranes at 10 uM incubated for 90 mins under dark condition by microbeta scintillation counting method relative to control.
Sequence of 5-hydroxytryptamine receptor 1D (Homo sapiens) (P28221 whole entry): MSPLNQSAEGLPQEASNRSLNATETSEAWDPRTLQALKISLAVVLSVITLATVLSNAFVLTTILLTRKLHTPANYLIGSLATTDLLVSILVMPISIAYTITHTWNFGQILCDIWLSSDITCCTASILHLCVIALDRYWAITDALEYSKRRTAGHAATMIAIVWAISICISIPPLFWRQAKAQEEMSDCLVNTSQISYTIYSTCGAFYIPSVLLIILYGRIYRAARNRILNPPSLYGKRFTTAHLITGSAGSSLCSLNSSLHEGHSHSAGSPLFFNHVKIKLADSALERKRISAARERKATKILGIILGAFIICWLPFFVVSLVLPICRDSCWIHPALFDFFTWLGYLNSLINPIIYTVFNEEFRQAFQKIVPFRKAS
Details: not given
For the compound `CNC(=O)[C@@]12C[C@@H]1[C@@H](n1cnc3c(N(C)C)nc(C#Cc4ccc(Cl)s4)nc31)[C@H](O)[C@@H]2O`, the inhibition was under 50%.

For the next experiment, the target named is 5-hydroxytryptamine receptor 1B (Homo sapiens) (UniProt P28222). Nature of the experiment: Displacement of [3H]5-CT from human 5-HT1BR expressed in HEK cell membranes at 10 uM incubated for 90 mins under dark condition by microbeta scintillation counting method relative to control. The following applies: HEK293.
Sequence of 5-hydroxytryptamine receptor 1B (Homo sapiens) (P28222 whole entry): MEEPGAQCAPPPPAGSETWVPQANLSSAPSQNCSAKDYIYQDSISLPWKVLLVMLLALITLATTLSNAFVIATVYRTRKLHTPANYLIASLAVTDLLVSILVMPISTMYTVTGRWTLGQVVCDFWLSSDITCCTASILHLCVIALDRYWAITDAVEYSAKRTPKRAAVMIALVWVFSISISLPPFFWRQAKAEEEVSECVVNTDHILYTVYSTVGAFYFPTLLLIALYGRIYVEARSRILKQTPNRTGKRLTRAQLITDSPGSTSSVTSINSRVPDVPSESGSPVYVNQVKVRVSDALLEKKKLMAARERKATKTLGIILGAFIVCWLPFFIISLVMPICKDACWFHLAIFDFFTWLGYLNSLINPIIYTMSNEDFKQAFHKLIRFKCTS
`CNC(=O)[C@@]12C[C@@H]1[C@@H](n1cnc3c(N(C)C)nc(C#Cc4ccc(Cl)s4)nc31)[C@H](O)[C@@H]2O` returned an inhibition of under 50%.

A further experiment deals with T5, Adenosine receptor A1 (Homo sapiens) (UniProt P30542).
T5 sequence (whole entry): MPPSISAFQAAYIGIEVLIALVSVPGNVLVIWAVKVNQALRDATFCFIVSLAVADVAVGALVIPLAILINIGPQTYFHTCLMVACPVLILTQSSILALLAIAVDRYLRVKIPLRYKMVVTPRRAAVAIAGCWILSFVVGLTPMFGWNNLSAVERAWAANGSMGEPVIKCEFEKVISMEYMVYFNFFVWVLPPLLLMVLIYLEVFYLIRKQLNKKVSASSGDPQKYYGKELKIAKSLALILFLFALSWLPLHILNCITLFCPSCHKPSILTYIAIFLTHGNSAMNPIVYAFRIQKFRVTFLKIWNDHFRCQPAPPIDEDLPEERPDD
Nature of the experiment: Displacement of [3H]N6-phenylisopropyladenosine from recombinant human A1AR expressed in CHO cell membranes at 10 uM after 60 mins by liquid scintillation counting method relative to control.
Details: not given
Take `CNC(=O)[C@@]12C[C@@H]1[C@@H](n1cnc3c(N(C)C)nc(C#Cc4ccc(Cl)s4)nc31)[C@H](O)[C@@H]2O`: the inhibition stood at 25%.

The target in another experiment is T6, 5-hydroxytryptamine receptor 1A (Homo sapiens) (UniProt P08908).
T6 sequence (whole entry): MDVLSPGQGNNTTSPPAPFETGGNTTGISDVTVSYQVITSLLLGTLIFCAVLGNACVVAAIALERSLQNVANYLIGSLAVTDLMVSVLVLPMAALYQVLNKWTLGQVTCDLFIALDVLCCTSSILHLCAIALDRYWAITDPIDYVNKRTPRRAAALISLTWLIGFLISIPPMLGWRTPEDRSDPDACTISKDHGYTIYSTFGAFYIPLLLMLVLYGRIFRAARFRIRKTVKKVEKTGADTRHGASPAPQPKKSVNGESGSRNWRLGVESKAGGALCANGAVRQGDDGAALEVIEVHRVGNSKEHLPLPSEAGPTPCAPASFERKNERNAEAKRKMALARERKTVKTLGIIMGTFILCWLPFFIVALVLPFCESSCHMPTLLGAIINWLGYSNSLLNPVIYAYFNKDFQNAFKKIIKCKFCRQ
The experiment can be described thus: Displacement of [3H]WAY100635 from human 5-HT1AR expressed in CHO cell membranes at 10 uM incubated for 90 mins under dark condition by microbeta scintillation counting method relative to control.
Details: not given
On to `CNC(=O)[C@@]12C[C@@H]1[C@@H](n1cnc3c(N(C)C)nc(C#Cc4ccc(Cl)s4)nc31)[C@H](O)[C@@H]2O`, for which the inhibition was under 50%.

A further experiment addresses 5-hydroxytryptamine receptor 1E (Homo sapiens) (UniProt P28566). The experiment can be described thus: Displacement of [3H]5-HT from human 5-HT1E receptor expressed in HEK cell membranes at 10 uM incubated for 90 mins under dark condition by microbeta scintillation counting method relative to control. As to conditions: HEK293.
Take `CNC(=O)[C@@]12C[C@@H]1[C@@H](n1cnc3c(N(C)C)nc(C#Cc4ccc(Cl)s4)nc31)[C@H](O)[C@@H]2O`: the inhibition was under 50%.

The target in another experiment is 5-hydroxytryptamine receptor 7 (Homo sapiens) (UniProt P34969). The experiment can be described thus: Displacement of [3H]LSD from human 5-HT7A receptor expressed in HEK cell membranes at 10 uM incubated for 90 mins under dark condition by microbeta scintillation counting method relative to control. As to conditions: HEK293.
Sequence of 5-hydroxytryptamine receptor 7 (Homo sapiens) (P34969 whole entry): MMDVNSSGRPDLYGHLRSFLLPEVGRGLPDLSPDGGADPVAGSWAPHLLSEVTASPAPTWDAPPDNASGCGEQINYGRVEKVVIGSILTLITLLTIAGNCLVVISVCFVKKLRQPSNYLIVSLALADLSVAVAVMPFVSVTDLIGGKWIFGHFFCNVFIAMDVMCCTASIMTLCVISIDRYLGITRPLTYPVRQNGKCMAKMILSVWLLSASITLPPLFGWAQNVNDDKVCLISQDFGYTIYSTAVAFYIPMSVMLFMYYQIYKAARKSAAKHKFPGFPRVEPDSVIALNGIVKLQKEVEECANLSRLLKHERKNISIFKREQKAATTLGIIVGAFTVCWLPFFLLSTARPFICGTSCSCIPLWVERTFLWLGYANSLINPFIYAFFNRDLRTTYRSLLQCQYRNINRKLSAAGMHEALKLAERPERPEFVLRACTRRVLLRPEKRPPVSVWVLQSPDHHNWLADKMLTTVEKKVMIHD
Consider `CNC(=O)[C@@]12C[C@@H]1[C@@H](n1cnc3c(N(C)C)nc(C#Cc4ccc(Cl)s4)nc31)[C@H](O)[C@@H]2O`, for which the inhibition was under 50%.

Another experiment has as its target 5-hydroxytryptamine receptor 5A (Homo sapiens) (UniProt P47898). The experiment can be described thus: Displacement of [3H]LSD from human 5-HT5A receptor expressed in Flp-In-CHO cell membranes incubated for 90 mins under dark condition by microbeta scintillation counting method relative to control. Also on record: concentration or dose not given beside the values.
Details: not given
`CNC(=O)[C@@]12C[C@@H]1[C@@H](n1cnc3c(N(C)C)nc(C#Cc4ccc(Cl)s4)nc31)[C@H](O)[C@@H]2O` yielded an inhibition of under 50%.

For another experiment, the target named is 5-hydroxytryptamine receptor 6 (Homo sapiens) (UniProt P50406). Nature of the experiment: Displacement of [3H]LSD from human 5-HT6 receptor expressed in HEK cell membranes at 10 uM incubated for 90 mins under dark condition by microbeta scintillation counting method relative to control. As to conditions: HEK293.
Sequence of 5-hydroxytryptamine receptor 6 (Homo sapiens) (P50406 whole entry): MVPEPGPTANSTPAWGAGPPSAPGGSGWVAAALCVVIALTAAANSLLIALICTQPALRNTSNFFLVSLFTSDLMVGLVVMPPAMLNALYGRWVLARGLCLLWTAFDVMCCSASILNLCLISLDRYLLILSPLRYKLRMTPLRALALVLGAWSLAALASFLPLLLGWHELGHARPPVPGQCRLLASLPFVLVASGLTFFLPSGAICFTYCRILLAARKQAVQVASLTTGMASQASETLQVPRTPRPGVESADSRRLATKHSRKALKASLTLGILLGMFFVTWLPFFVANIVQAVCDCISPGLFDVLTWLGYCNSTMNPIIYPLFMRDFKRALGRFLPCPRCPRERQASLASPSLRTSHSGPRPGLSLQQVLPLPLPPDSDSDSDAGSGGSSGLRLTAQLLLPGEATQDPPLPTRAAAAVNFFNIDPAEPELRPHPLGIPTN
For the compound `CNC(=O)[C@@]12C[C@@H]1[C@@H](n1cnc3c(N(C)C)nc(C#Cc4ccc(Cl)s4)nc31)[C@H](O)[C@@H]2O`, the inhibition was under 50%.

Another experiment deals with T4, 5-hydroxytryptamine receptor 2A. The experiment can be described thus: Displacement of [3H]ketanserin from human 5-HT2A receptor expressed in HEK-T cell membranes incubated for 90 mins under dark condition by microbeta scintillation counting method.
Details: not given
`CNC(=O)[C@@]12C[C@@H]1[C@@H](n1cnc3c(N(C)C)nc(C#Cc4ccc(Cl)s4)nc31)[C@H](O)[C@@H]2O` had a Ki of over 10 µM.

The target of another experiment is T7, Adenosine receptor A3 (Homo sapiens, UniProt P0DMS8).
T7 sequence (P0DMS8 whole entry): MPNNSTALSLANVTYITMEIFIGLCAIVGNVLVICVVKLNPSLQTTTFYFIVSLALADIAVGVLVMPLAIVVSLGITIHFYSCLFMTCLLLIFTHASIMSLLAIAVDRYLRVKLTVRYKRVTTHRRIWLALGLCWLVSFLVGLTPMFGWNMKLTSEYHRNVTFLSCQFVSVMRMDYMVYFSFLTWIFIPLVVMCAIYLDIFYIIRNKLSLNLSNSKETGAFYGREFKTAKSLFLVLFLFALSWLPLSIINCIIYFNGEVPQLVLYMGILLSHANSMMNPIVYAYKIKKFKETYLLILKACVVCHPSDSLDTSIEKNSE
Nature of the experiment: Displacement of [125l]N 6-(4-amino-3-iodobenzyl)adenosine-5'-N-methyluronamide from recombinant human A3AR expressed in CHO cell membranes after 60 mins by gamma counting method.
Details: not given
As for `CNC(=O)[C@@]12C[C@@H]1[C@@H](n1cnc3c(N(C)C)nc(C#Cc4ccc(Cl)s4)nc31)[C@H](O)[C@@H]2O`, the Ki came to 0.0235 µM.

The next experiment addresses 5-hydroxytryptamine receptor 4 (Homo sapiens) (UniProt Q13639). The experiment can be described thus: Displacement of [3H]GR113808 from human 5-HT4 receptor at 10 uM incubated for 90 mins under dark condition by microbeta scintillation counting method relative to control.
Details: not given
Regarding `CNC(=O)[C@@]12C[C@@H]1[C@@H](n1cnc3c(N(C)C)nc(C#Cc4ccc(Cl)s4)nc31)[C@H](O)[C@@H]2O`, the inhibition was under 50%.

The record behind these values is ChEMBL document CHEMBL3862033 (J Med Chem, 2016).
